Reference: patent US20090197960A1, “Method of Inhibiting Polyneuropathic Pain with 3-(2-Dimethylaminomethylcyclohexyl) Phenol” (Gruenenthal GmbH, priority 2008, published 2009)

Tests used:
[1] = system: pain in post-herpetic neuralgia; conditions: number of patients treated for one patient to experience more than 50% pain relief; cited from earlier work
[2] = system: pain in diabetic polyneuropathy; conditions: number of patients treated for one patient to experience more than 50% pain relief; cited from earlier work
[3] = system: cold allodynia in mononeuropathic pain; experiment: Mononeuropathic pain model according to Bennett (ischial nerve ligatures), cold allodynia on cold metal plate at 4° C.; assay type: in vivo, Sprague Dawley rats
Experimental: (§1) Male Sprague Dawley rats (140-180 g, Janvier, France) were kept under standard conditions (06.00-18.00 light, 18.00-06.00 darkness; 20-24° C. room temperature, 35-70% relative humidity; tap water and standard feed (ad libitum)) in groups of five animals in Macrolon type 4 cages.
The investigation was carried out according to Bennett et al., Pain, 1988, 33, 87-107.
Under pentobarbital anaesthesia (Narcocen, 60 mg/kg i.p., Merial GmbH, Germany), four loose ligatures were placed unilaterally on the right ischial nerve. On the paw innervated by the damaged nerve, the animals developed hypersensitivity which, after one week's convalescence, was quantified over a period of approx. four weeks using a cold metal plate at 4° C. (cold allodynia). The animals were observed on this plate for a period of 2 min. and the number of withdrawal responses by the damaged paw was measured. The action of the substance, relative to the preliminary value before administration of the substance, was determined over a period of one hour at four different times (15, 30, 45, 60 min after administration). The inhibition of cold allodynia at the individual measurement times was stated in percent relative to the individual pretest (% MPE), with the pretest corresponding to 0% MPE and complete inhibition (0 withdrawal responses per 2 min) to 100% MPE. Group size was n=10. The significance of a substance's action was determined on the basis of the percentage inhibition values relative to the vehicle group by bifactorial analysis of variance and post hoc Bonferroni analysis, the ED50 value by linear regression analysis for the individual measurement points or the area under the curve (AUC).

[4] = system: cold allodynia in polyneuropathic pain; experiment: Polyneuropathic pain model according to Authier (vincristine-induced), cold allodynia with acetone drop; assay type: in vivo, Sprague Dawley rats
Experimental: as §1
The investigation was carried out according to Authier et al., Neuroreport, 1999, 10, 965-8.
Three days after the final vincristine treatment, the animals had developed hypersensitivity to cold (cold allodynia) which continued over a period of three weeks. For testing, the animals were placed under a plastic cover on a grating and, after habituation, cold allodynia was quantified. To this end, a drop of acetone (10 μl) was carefully applied onto a hind paw with a syringe and a thin plastic tube. The number of induced withdrawal responses (shaking, stamping or licking) was recorded over a period of 30 sec. The cumulative number from 5 stimulations (at 5 min intervals from one another) was determined before and at different times after administration of the substance or the vehicle. The percentage inhibition value (% MPE) was determined in comparison with the particular pretest (0% MPE) and with the weekly vehicle control group (100% MPE=0 withdrawal responses). The size of the group was usually n=10. The significance of a substance's action was determined on the basis of the percentage inhibition value relative to the vehicle group by means of bifactorial analysis of variance and post hoc Bonferroni analysis, the ED50 value by linear regression analysis for the individual measurement points.

In the case of `COc1ccc2c3c1O[C@H]1C(=O)CC[C@@]4(O)[C@@H](C2)N(C)CC[C@]314` [Oxycodone], the “NNT (Numbers Needed to Treat)” value [1] is given as 2.5.
In the case of `COc1cc(CNC(=O)CCCC/C=C/C(C)C)ccc1O` [Capsaicin], the “NNT (Numbers Needed to Treat)” value [2] is listed as 5.9 and the “NNT (Numbers Needed to Treat)” value [1] is listed as 5.3.
In the case of `CN(C)C[C@@H]1CCCC[C@H]1c1cccc(O)c1` [(1R,2R)-3-(2-Dimethylaminomethylcyclohexyl)phenol], the “inhibition of cold allodynia (in words)” value ([3]; 10-31.6 mg/kg i.p.) is reported as “dose-dependent inhibition”, the maximum effect ([3]; 15 min after administration of 31.6 mg/kg) is reported as 80 % MPE and the ED50 ([3]; Rattus norvegicus, ip, 0.5 h, 30 min after administration, i.p., mononeuropathic pain model, read-out: ED50 value (95% VB)) is reported as 17.6 mg/kg. For the same compound, the “inhibition of cold allodynia, Mean” value ([3]; dose 10 (mg/kg i.p.), 15 min after administration) was 22.16 % MPE, the “inhibition of cold allodynia, Mean” value ([3]; dose 10 (mg/kg i.p.), 30 min after administration) was 20.93 % MPE and the “inhibition of cold allodynia, Mean” value ([3]; dose 10 (mg/kg i.p.), 45 min after administration) was 8.60 % MPE. For the same compound, the “inhibition of cold allodynia, Mean” value ([3]; dose 10 (mg/kg i.p.), 60 min after administration) was 9.23 % MPE, the “inhibition of cold allodynia, Mean” value ([3]; dose 21.5 (mg/kg i.p.), 15 min after administration) was 56.62 % MPE and the “inhibition of cold allodynia, Mean” value ([3]; dose 21.5 (mg/kg i.p.), 30 min after administration) was 61.06 % MPE. The “inhibition of cold allodynia, Mean” value ([3]; dose 21.5 (mg/kg i.p.), 45 min after administration) was 34.96 % MPE, the “inhibition of cold allodynia, Mean” value ([3]; dose 21.5 (mg/kg i.p.), 60 min after administration) was 16.33 % MPE and the “inhibition of cold allodynia, Mean” value ([3]; dose 31.6 (mg/kg i.p.), 15 min after administration) was 80.03 % MPE. For the same compound, the “inhibition of cold allodynia, Mean” value ([3]; dose 31.6 (mg/kg i.p.), 30 min after administration) was 79.15 % MPE, the “inhibition of cold allodynia, Mean” value ([3]; dose 31.6 (mg/kg i.p.), 45 min after administration) was 61.68 % MPE and the “inhibition of cold allodynia, Mean” value ([3]; dose 31.6 (mg/kg i.p.), 60 min after administration) was 21.18 % MPE. The “minimally active dose at which a statistically significant inhibition was obtained” value ([3]; i.p., mononeuropathic pain model) was 21.5 mg/kg, the “dose of significant inhibition, mononeuropathic versus polyneuropathic pain model” value ([4]; 21.5 mg/kg i.p. versus 4.64 mg/kg i.p.) was “more than four times higher” and the “inhibition of cold allodynia (in words)” value ([4]; 10-21.5 mg/kg i.p.) was “dose-dependent inhibition”. The maximum effect ([4]; 30 min after administration of 21.5 mg/kg) was 74 % MPE, the ED50 ([4]; Rattus norvegicus, ip, 0.5 h, 30 min after administration, i.p., polyneuropathic pain model, read-out: ED50 value (95% VB)) was 5.7 mg/kg and the “efficacy in polyneuropathic pain relative to mononeuropathic pain in an animal model” value ([4]; animal model) was “approx. four times greater”. The “inhibition of cold allodynia, Mean” value ([4]; dose 2.15 (mg/kg i.p.), 30 min) was 48.4 % MPE, the “inhibition of cold allodynia, Mean” value ([4]; dose 2.15 (mg/kg i.p.), 180 min) was −37.7 % MPE and the “inhibition of cold allodynia, Mean” value ([4]; dose 4.64 (mg/kg i.p.), 30 min) was 67.9 % MPE. The “inhibition of cold allodynia, Mean” value ([4]; dose 4.64 (mg/kg i.p.), 180 min) was 22.6 % MPE, the “inhibition of cold allodynia, Mean” value ([4]; dose 10 (first dose line of the table, i.p.), 30 min) was −28.9 % MPE and the “inhibition of cold allodynia, Mean” value ([4]; dose 10 (first dose line of the table, i.p.), 180 min) was −22.2 % MPE. For the same compound, the “inhibition of cold allodynia, Mean” value ([4]; dose 10 (fourth dose line of the table, mg/kg i.p.), 30 min) was 58.7 % MPE, the “inhibition of cold allodynia, Mean” value ([4]; dose 10 (fourth dose line of the table, mg/kg i.p.), 180 min) was 20.8 % MPE and the “inhibition of cold allodynia, Mean” value ([4]; dose 21.5 (mg/kg i.p.), 30 min) was 74.2 % MPE. The “inhibition of cold allodynia, Mean” value ([4]; dose 21.5 (mg/kg i.p.), 180 min) was 15.2 % MPE and the “minimally active dose at which a statistically significant inhibition was obtained” value ([4]; i.p., polyneuropathic pain model) was 4.64 mg/kg.
In the case of `COc1ccc2c(c1)[C@]13CCCC[C@@H]1[C@H](C2)N(C)CC3` [Oextromethorphan], the “NNT (Numbers Needed to Treat)” value [2] is listed as 1.9.
For `NCC1(CC(=O)O)CCCCC1` [Gabapentin], the “NNT (Numbers Needed to Treat)” value [2] is given as 3.7 and the “NNT (Numbers Needed to Treat)” value [1] is given as 3.2.
In the case of `Cc1cccc(C)c1OCC(C)N` (stereo not shown) [Mexiletine], the “NNT (Numbers Needed to Treat)” value [2] is listed as 10.0.
For `NC(=O)N1c2ccccc2C=Cc2ccccc21` [Carbamazepine], the “NNT (Numbers Needed to Treat)” value [2] is listed as 3.3.
For `CN(C)CCCN1c2ccccc2CCc2ccccc21` [Imipramine], the “NNT (Numbers Needed to Treat)” value [2] is given as 1.4.
In the case of `N[C@@H](Cc1ccc(O)c(O)c1)C(=O)O` [L-Dopa], the “NNT (Numbers Needed to Treat)” value [2] is listed as 3.4.
For `COc1cccc(C2(O)CCCCC2CN(C)C)c1` (stereo not shown) [Tramadol], the “NNT (Numbers Needed to Treat)” value [2] is listed as 3.4.
